From article PMC11124387, “A Reliable Multifaceted Solution against Foodborne Viral Infections: The Case of RiLK1 Decapeptide” (Molecules, 2024)
“And” between values parts separate entries of the source, which are not always exact repeats. Equal entries are not always repeated. Where two headings read alike, the source gives them in different places. Where a SMILES comes first, the peptide text is derived from it.

Tests used:
[1] = system: Hepatitis A virus (HAV) strain HM-175; assay: Virucidal effect of peptides on HAV (residual infectivity by TCID50 titration on Frp3 cells); format: cell-based; details: for Viral Titre after Treatment: titration on Frp3 cells; for Viral Titre after Treatment / LRV (log reduction value): mean ± SD, triplicate
Text: (§1) Murine norovirus strain 1 (MNV-1) was used as a surrogate for human norovirus (NoV). The virus was replicated in RAW 264.7 cells (murine macrophage cell line) cultured in Dulbecco’s modified Eagle’s medium (DMEM) supplemented with 1% glutamine, 1% non-essential amino acids, and 2% fetal bovine serum (FBS). Hepatitis A virus (HAV) strain HM-175 was replicated in Frp3 cells (non-human primate cell line derived from fetal kidney) cultured in minimum essential medium (MEM) with Earle’s salts supplemented with 1% glutamine, 2% non-essential amino acids, and 2% FBS. Both viruses were incubated in 5% CO2 at 37 °C. All cell culture media were provided by EuroClone (Milan, Italy). The viral suspensions were prepared by freeze and thaw lysis (1 cycle for MNV-1 and 3 cycles for HAV) of infected monolayers, clarified using low-speed centrifugation (800× g) to remove residual cell debris, then divided in aliquots, and stored at −80 °C until use.
(§2) Solutions 40 µM and 80 µM of each peptide of the panel (RiLK1, RiLK3, RiLK30, 1018-K6, MTP1, and AVP2) were chosen for the virucidal tests. HAV and MNV-1 were assayed at a concentration of 4.7 ± 0.2 log TCID50/mL and 4.5 ± 0.2 log TCID50/mL, respectively. The suspensions containing the peptides and viruses were incubated for 1 h at room temperature (RT,20 ± 2 °C) and 4 °C. These temperatures were chosen to simulate the use of sanitizing solutions in food production/processing environments. Residual viral infectivity was evaluated by titration (TCID50/mL) on Frp3 cells for HAV and on RAW 264.7 cells for MNV-1. Untreated HAV and MNV-1 suspensions and 40 µM and 80 µM AMP solutions, incubated at the same conditions, were used as controls. Each treatment condition was assayed in triplicate. For titration, 100 µL of serial tenfold dilutions of each sample were assayed in 24-well tissue culture plates containing 24–48 h cell monolayers and incubated for 1 h in 5% CO2 at 37 °C. After that, the wells were washed twice with 200 µL of PBS, and 500 µL of DMEM/MEM, supplemented with 2% of FBS, were was added to each well; MNV-1 and HAV incubations were carried for up to 6 days and 14 days, respectively, in 5% CO2 at 37 °C with daily visual inspection to determine the cytopathic effect. The virucidal efficacy of AMPs was estimated by comparing the titers of treated and untreated viral suspensions.
(§3) For each treatment, the average and standard deviation of the triplicate analyses were calculated. The virucidal effects of AMPs was assessed by calculating the log reduction value (LRV), i.e., the difference between the infectious titer (log-transformed) of untreated versus treated samples. The statistical significance of differences between treated and untreated samples was determined through one-way analysis of variance (ANOVA) with Bonferroni post hoc comparisons, with a significance level of p < 0.05 (GraphPad Prism v9.5.0, software San Diego, CA, USA).

[2] = system: Murine norovirus strain 1 (MNV-1); format: cell-based; details: for Viral Titre after Treatment: titration on RAW 264.7 cells; for Viral Titre after Treatment / LRV (log reduction value): mean ± SD, triplicate; for virucidal activity toward MNV-1 (in words): 40 and 80 µM, 4 °C and RT
Text: as §1, §2, §3

[3] = system: Hepatitis A virus (HAV) strain HM-175; assay: Entry assay, HAV; format: cell-based; details: entry: cells with virus 1 h at 4 °C, then peptide 80 µM 1 h 37 °C, mean ± SD
Description: (§4) Four sets of experiments were performed to suppose the effect of RiLK1 and RiLK3 on HAV and MNV-1 [29]. To this aim, 80 µM solutions of the two peptides and HAV and MNV-1 suspensions at a final concentration of 4.7 ± 0.2 log TCID50/mL and 4.5 ± 0.2 log TCID50/mL, respectively, were used in the following experiments: • i) A virus pre-treatment assay to assess the direct interaction between the virus and peptide: the incubation of the peptide with viral suspension for 1 h at room temperature was carried out, followed by its incubation on cells for 1 h at 37 °C. Then, cell monolayers were washed twice with PBS and incubated with 500 µL DMEM/MEM supplemented with 2% of FBS to determine the TCID50/mL. • ii) A cell pre-treatment assay to assess the interaction between the peptide and cells before the viral infection: cell monolayers were preincubated with 100 µL of peptide solution for 1 h at 37 °C, followed by the removal of the peptide, addition to cells of viral suspensions for 1 h at 37 °C, washing step, and culture with 2% FBS DMEM/MEM. • iii) An attachment assay to assess the possible action of the peptide at the stage of virus attachment to cells: cell monolayers were incubated with 100 µL of a suspension containing both the peptide and virus and were incubated for 1 h at 4 °C. Subsequently, the cell monolayers were washed with PBS and incubated for 1 h at 37 °C with a culture medium followed by a washing step and the addition of culture with 2% FBS DMEM/MEM. • iv) An entry assay to assess the possible action of the peptide at the stage of virus internalization into cells: cell monolayers were incubated with 100 µL of the viral suspension for 1 h at 4 °C, followed by the addition of the peptide and incubation for 1 h at 37 °C. Cells were then washed with PBS, and 2% FBS DMEM/MEM was finally added.
(§5) Untreated viral suspensions and peptide solutions, incubated at the same conditions, were used as controls.
as §3

[4] = system: Murine norovirus strain 1 (MNV-1); assay: Virus pre-treatment assay, MNV-1; format: cell-based; details: virus pre-treatment: peptide 80 µM with virus 1 h at RT, mean ± SD; for Viral Titre: then on RAW 264.7 cells 1 h 37 °C
Description: as §4, with “Subsequently, the cell monolayers were washed with PBS and incubated for 1 h at 37 °C with a culture medium followed by a washing step and the addition of culture with 2% FBS DMEM/MEM. • iv) An entry assay to assess the possible action of the peptide at the stage of virus internalization into cells: cell monolayers were incubated with 100 µL of the viral suspension for 1 h at 4 °C, followed by the addition of the peptide and incubation for 1 h at 37 °C. Cells were then washed with PBS, and 2% FBS DMEM/MEM was finally added.” left out
as §3

[5] = system: Murine norovirus strain 1 (MNV-1); assay: Cell pre-treatment assay, MNV-1; format: cell-based; details: cell pre-treatment: cells with peptide 80 µM 1 h 37 °C, peptide removed, then virus 1 h 37 °C, mean ± SD
Description: as §4, §5, §3

[6] = system: Murine norovirus strain 1 (MNV-1); assay: Entry assay, MNV-1; format: cell-based; details: entry: cells with virus 1 h at 4 °C, then peptide 80 µM 1 h 37 °C, mean ± SD
Description: as §4, §5, §3

[7] = cited from earlier work; for structural stability: pH 2; for conformation in mimicked membrane solutions (self-aggregation): ref [41],[42],[43],[44],[45]
Description: In this context, to acquire important information on how the conformational properties of peptides might influence the structure–function relationships and their distinct membrane interaction profiles, the propensity of the new peptides, RiLK30 and AVP2, to adopt a defined secondary structure and to undergo conformational changes were examined by circular dichroism and fluorescence spectroscopy. These analyses were performed in the presence of a negatively charged SDS that is commonly used as a biomimetic membrane model to study the structural features of membranotropic molecules. In previous ...

[8] = HAV 4.7 ± 0.2 log TCID50/mL + peptide 80 µM, 1 h at 4 °C
[9] = HAV + peptide 40 µM, 1 h at 4 °C
[10] = HAV + peptide 40 µM, 1 h at 4 °C, untreated minus treated titre
[11] = HAV + peptide 80 µM, 1 h at 4 °C, untreated minus treated titre
[12] = maximum reduction, corresponding to the highest LRV
[13] = MNV-1 4.5 ± 0.2 log TCID50/mL + peptide 80 µM, 1 h at 4 °C
[14] = MNV-1 + peptide 40 µM, 1 h at 4 °C
[15] = MNV-1 + peptide 40 µM, 1 h at RT (20 ± 2 °C)
[16] = MNV-1 + peptide 80 µM, 1 h at 4 °C
[17] = MNV-1 + peptide 80 µM, 1 h at RT (20 ± 2 °C)
[18] = HAV + peptide 40 µM, 1 h at RT (20 ± 2 °C)
[19] = HAV + peptide 80 µM, 1 h at RT (20 ± 2 °C)

Molecule | Viral Titre after Treatment [1, 8] [logTCID50/mL] | Viral Titre after Treatment [1, 9] [logTCID50/mL] | LRV (log reduction value) [1, 10] [logTCID50/mL] | LRV (log reduction value) [1, 11] [logTCID50/mL] | Viral Titre after Treatment [2, 13] [logTCID50/mL] | LRV (log reduction value) [2, 14] [logTCID50/mL] | Viral Titre after Treatment [2, 14] [logTCID50/mL] | LRV (log reduction value) [2, 15] [logTCID50/mL] | Viral Titre after Treatment [2, 15] [logTCID50/mL] | LRV (log reduction value) [2, 16] [logTCID50/mL] | LRV (log reduction value) [2, 17] [logTCID50/mL] | Viral Titre after Treatment [2, 17] [logTCID50/mL] | LRV [3] [logTCID50/mL] | Viral Titre [3] [logTCID50/mL] | Viral Titre [4] [logTCID50/mL] | LRV [5] | Viral Titre [5] [logTCID50/mL] | LRV [6] [logTCID50/mL] | Viral Titre [6] [logTCID50/mL] | structural stability [7] | also measured
CC[C@H](C)[C@H](NC(=O)[C@H](CCCNC(=N)N)NC(=O)[C@@H](NC(=O)[C@H](Cc1c[nH]c2ccccc12)NC(=O)[C@H](CCCCN)NC(=O)[C@H](CC(C)C)NC(=O)[C@@H](N)CCCNC(=N)N)C(C)C)C(=O)N[C@@H](Cc1c[nH]c2ccccc12)C(=O)N[C@@H](CCCNC(=N)N)C(=O)N[C@@H](CCCNC(=N)N)C(N)=O [RiLK1] (H-RLKWVRIWRR-NH2; N-terminus assumed) | 3.6 ± 0.1 | 3.9 ± 0.2 | 0.8 ± 0.4 | 1.1 ± 0.3 | 4.3 ± 0.2 | 0.2 ± 0.4 | 4.3 ± 0.2 | 1.0 ± 0.4 | 3.5 ± 0.2 | 0.2 ± 0.4 | 1.2 ± 0.4 | 3.3 ± 0.2 | 0.1 ± 0.3 | 4.6 ± 0.1 | 3.3 ± 0.2 | 0.3 ± 0.4 logTCID50/mL | 4.2 ± 0.2 | 1.0 ± 0.4 | 3.5 ± 0.2 | high structural stability | decrease of HAV infectious titer [1, 12]: up to 96.7%; reduction of MNV-1 infectivity [2, 12]: up to 94.1%; LRV ([6]; listed as RilLK1): 1.0 logTCID50/mL; conformation in mimicked membrane solutions (self-aggregation) [7]: higher-ordered self-aggregates
KLRWVKIWKK-NH2 [RiLK30, newly designed RiLK1 derivative, Arg residues exchanged with Lys and Lys3 with Arg] | 4.3 ± 0.2 | 4.3 ± 0.2 | 0.4 ± 0.4 | 0.4 ± 0.4 | 3.9 ± 0.2 | 0.2 ± 0.5 | 4.3 ± 0.3 | 0 ± 0.4 | 4.5 ± 0.2 | 0.6 ± 0.4 | 0 ± 0.3 | 4.5 ± 0.1 |  |  |  |  |  |  |  |  | virucidal activity toward HAV (in words) ([1]; 40 and 80 µM, 4 °C and RT): no virucidal activity; LRV (log reduction value) [1, 18]: 0.6 ± 0.4 logTCID50/mL; Viral Titre after Treatment [1, 18]: 4.1 ± 0.2 logTCID50/mL; LRV (log reduction value) [1, 19]: 0.6 ± 0.4 logTCID50/mL; Viral Titre after Treatment [1, 19]: 4.1 ± 0.2 logTCID50/mL; virucidal activity toward MNV-1 (in words) [2]: no virucidal activity
RLRWVRIWRR-NH2 [RiLK3, RiLK1 analog differing by one amino acid (Lys replaced with Arg), C-terminally amidated] | 4.6 ± 0.1 | 4.6 ± 0.3 | 0.1 ± 0.2 | 0.1 ± 0.3 | 4.5 ± 0.2 | 0 ± 0.3 | 4.5 ± 0.1 | 0 ± 0.4 | 4.5 ± 0.2 | 0 ± 0.4 | 0 ± 0.3 | 4.5 ± 0.1 | 0.5 ± 0.4 | 4.2 ± 0.2 | 4.5 ± 0.1 | 1.0 logTCID50/mL and 1.0 ± 0.3 logTCID50/mL | 3.5 ± 0.1 | 1.0 ± 0.3 | 3.5 ± 0.1 | high structural stability | virucidal activity toward MNV-1 (in words) [2]: not effective; LRV ([4]; then on cells 1 h 37 °C): 0 ± 0.3 logTCID50/mL; conformation in mimicked membrane solutions (self-aggregation) [7]: higher-ordered self-aggregates
